Experimental data as given in patent US20250313563A1, “GLYCOGEN SYNTHASE KINASE 3 INHIBITORS AND USES THEREOF” (The Broad Institute, Inc., priority 2022, published 2025).
Like-named read-outs stand apart in the source and are kept apart here.

What was measured:
[1] = biological target: GSK3α (GST-full length GSK3α) (Homo sapiens (Human), UniProt P49840); assay: GSK3α TR-FRET kinase assay; assay type: biochemical
Method in brief: (§1)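 1 nM GST-GSK3α/β + cpd, 30 min preinc; add 200 nM biotin-pS645 GS(631-650) peptide + ATP (α 4 μM / β 2 μM, or 1 mM); 100 min RT, 50 mM Tris pH 7.5, 20 mM MgCl2, 1% DMSO; EDTA stop; SA-d2/Tb-pSer641 Ab 60 min; 665/615 ratio → IC50.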

[2] = biological target: GSK3b (GST-full length GSK3b) (Homo sapiens (Human), UniProt P49841); assay: GSK3b TR-FRET kinase assay; assay type: biochemical
Chain of GSK3b (GST-full length GSK3b) (P49841 whole entry): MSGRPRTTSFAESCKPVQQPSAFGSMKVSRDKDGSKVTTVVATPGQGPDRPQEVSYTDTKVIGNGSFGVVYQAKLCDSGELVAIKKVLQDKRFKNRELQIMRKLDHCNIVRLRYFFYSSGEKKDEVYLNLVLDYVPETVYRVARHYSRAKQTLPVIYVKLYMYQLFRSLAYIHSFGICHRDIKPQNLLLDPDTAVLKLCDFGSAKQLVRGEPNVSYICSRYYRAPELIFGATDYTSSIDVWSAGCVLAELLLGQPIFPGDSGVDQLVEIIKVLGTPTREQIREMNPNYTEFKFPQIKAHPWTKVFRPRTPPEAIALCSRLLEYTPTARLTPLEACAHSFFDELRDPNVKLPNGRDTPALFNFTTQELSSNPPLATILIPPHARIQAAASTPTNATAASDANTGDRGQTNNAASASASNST
Method in brief: as §1

[3] = 1 nM GSK3α, 4 μM ATP, 30 minute preincubation, geometric mean, read-out: GSK3-A TR-FRET BIOCHEMICAL (TR-FRET), GMean, IC50
[4] = 1 nM GSK3b, 2 μM ATP, 30 minute preincubation, geometric mean, read-out: GSK3-B TR-FRET BIOCHEMICAL (TR-FRET), GMean, IC50
[5] = 1 nM GSK3α, 4 μM ATP, 30 minute preincubation, Table 16, read-out: GSK3-A TR-FRET BIOCHEMICAL (TR-FRET)
[6] = 1 nM GSK3b, 2 μM ATP, 30 minute preincubation, Table 16, read-out: GSK3-B TR-FRET BIOCHEMICAL (TR-FRET)
[7] = GSK3-A (TR-FRET 1 mM ATP), GMean, IC50, 1 mM ATP, geometric mean
[8] = GSK3-B (TR-FRET 1 mM ATP), GMean, IC50, 1 mM ATP, geometric mean
[9] = 1 nM GSK3α, 4 μM ATP, 30 minute preincubation, read-out: GSK3-A TR-FRET BIOCHEMICAL (TR-FRET), IC50
[10] = 1 nM GSK3b, 2 μM ATP, 30 minute preincubation, read-out: GSK3-B TR-FRET BIOCHEMICAL (TR-FRET), IC50
[11] = read-out: GSK3-A (TR-FRET 1 mM ATP), GMean, IC50, 1 mM ATP, geometric mean
[12] = read-out: GSK3-B (TR-FRET 1 mM ATP), GMean, IC50, 1 mM ATP, geometric mean

Chain of GSK3α (GST-full length GSK3α) (P49840 whole entry): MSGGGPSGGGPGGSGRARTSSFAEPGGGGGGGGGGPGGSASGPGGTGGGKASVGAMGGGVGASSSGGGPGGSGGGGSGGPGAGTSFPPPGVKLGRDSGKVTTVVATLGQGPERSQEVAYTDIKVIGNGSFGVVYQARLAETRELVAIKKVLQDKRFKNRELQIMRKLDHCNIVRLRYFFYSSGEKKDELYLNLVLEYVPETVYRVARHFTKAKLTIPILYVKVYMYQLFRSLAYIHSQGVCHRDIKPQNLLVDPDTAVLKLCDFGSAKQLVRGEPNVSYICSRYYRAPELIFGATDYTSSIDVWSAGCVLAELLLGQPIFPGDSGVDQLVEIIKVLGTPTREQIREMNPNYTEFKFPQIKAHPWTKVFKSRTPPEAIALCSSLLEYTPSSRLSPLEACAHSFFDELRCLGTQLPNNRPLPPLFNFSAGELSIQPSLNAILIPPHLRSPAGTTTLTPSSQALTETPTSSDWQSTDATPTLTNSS

IC50 [1, 3] [nM]	IC50 [2, 4] [nM]	IC50 [1, 5] [nM]	IC50 [2, 6] [nM]	Compound	also measured
≤ 100	1000 to 5000			CCC1(c2cccc(-c3ccncc3C)c2)C2=C(CC(C)(C)NC2=O)Nc2n[nH]cc21 (stereo not shown) [Compound 947576]	
≤ 100	100 to 1000			CCC1(c2cccc(-c3ccnc4c3CCC4)c2)C2=C(CC(C)(C)NC2=O)Nc2n[nH]c(C)c21 (stereo not shown) [Compound 947675]	
≤ 100	100 to 1000			CCC1(c2cccc(-c3ccnc4c3CCC4)c2)C2=C(CC(C)(C)NC2=O)Nc2n[nH]cc21 (stereo not shown) [Compound 947676]	
≤ 100	≤ 100			CCC1(c2cccc(-c3cn[nH]c3)c2)C2=C(CC(C)(C)NC2=O)Nc2n[nH]c(C(F)(F)F)c21 (stereo not shown) [Compound 947677]	
≤ 100	100 to 1000			CCC1(c2cccc(-c3ccnc(C)c3)c2)C2=C(CC(C)(C)NC2=O)Nc2n[nH]c(C)c21 (stereo not shown) [Compound 947798]	
≤ 100	≤ 100			CC[C@@]1(c2cccc(S(=O)(=O)C3CC3)c2)C2=C(CC(C)(C)NC2=O)Nc2n[nH]cc21 [Compound 947803]	
≤ 100	100 to 1000			CCC1(c2cccc(-c3cc(C)ncc3F)c2)C2=C(CC(C)(C)NC2=O)Nc2n[nH]cc21 (stereo not shown) [Compound 947804]	
100 to 1000	1000 to 5000			CC[C@]1(c2cccc(-c3ccncc3F)c2)C2=C(CC(C)(C)NC2=O)Nc2n[nH]c(C)c21 [Compound 947805]	
≤ 100	≤ 100			CCC1(c2cccc(-c3cncn3C)c2)C2=C(CC(C)(C)NC2=O)Nc2n[nH]cc21 (stereo not shown) [Compound 947806]	
≤ 100	100 to 1000			CC[C@]1(c2cccc(-c3cnn(C)c3C)c2)C2=C(CC(C)(C)NC2=O)Nc2n[nH]c(C(F)(F)F)c21 [Compound 947807]	
≤ 100	≤ 100			CC[C@]1(c2cccc(-c3ccncc3C)c2)C2=C(CC(C)(C)NC2=O)Nc2[nH]nc(C(F)(F)F)c21 [Compound 947812]	
≤ 100	≤ 100			CCC1(c2cccc(-c3ccncc3C)c2)C2=C(CC(C)(C)NC2=O)Nc2n[nH]c(C(F)(F)F)c21 (stereo not shown) [Compound 947814]	IC50 [1, 11]: ≤ 100 nM; IC50 [2, 12]: ≤ 100 nM
100 to 1000	100 to 1000			CC[C@]1(c2cccc(-c3cncn3C)c2)C2=C(CC(C)(C)NC2=O)Nc2n[nH]cc21 [Compound 947820]	
≤ 100	≤ 100			CC[C@@]1(c2cccc(-c3ccncc3F)c2)C2=C(CC(C)(C)NC2=O)Nc2n[nH]c(C)c21 [Compound 947821]	
100 to 1000	> 5000			CC[C@]1(c2cccc(-c3cc(C)ncc3F)c2)C2=C(CC(C)(C)NC2=O)Nc2n[nH]cc21 [Compound 947822]	

The next lines start with the molecule.

Compound	IC50 [1, 3] [nM]	IC50 [2, 4] [nM]	IC50 [1, 5] [nM]	IC50 [2, 6] [nM]	also measured
CCC1(c2cccc(-c3c(C)nn(C)c3C)c2)C2=C(CC(C)(C)NC2=O)Nc2n[nH]c(C)c21 (stereo not shown) [Compound 947575]	≤ 100	≤ 100			
COCc1cccc(S(=O)(=O)N2CCC3(CC2)C2=C(CC(C)(C)CC2=O)Nc2n[nH]cc23)c1 [Compound 947605]			≤ 100	≤ 100	
Cn1nc(C(F)(F)F)cc1S(=O)(=O)N1CCC2(CC1)C1=C(CC(C)(C)CC1=O)Nc1n[nH]cc12 [Compound 947606]			≤ 100	≤ 100	
CC(C)n1cc(S(=O)(=O)N2CCC3(CC2)C2=C(CC(C)(C)CC2=O)Nc2n[nH]cc23)cn1 [Compound 947607]			≤ 100	≤ 100	
Cc1cc(S(=O)(=O)N2CCC3(CC2)C2=C(CC(C)(C)CC2=O)Nc2n[nH]cc23)n(C)n1 [Compound 947608]			≤ 100	≤ 100	
CCn1nc(C)cc1S(=O)(=O)N1CCC2(CC1)C1=C(CC(C)(C)CC1=O)Nc1n[nH]cc12 [Compound 947609]			≤ 100	100 to 1000	
CC1(C)CC(=O)C2=C(C1)Nc1n[nH]cc1C21CCN(S(=O)(=O)c2cnc3ccccn23)CC1 [Compound 947610]			≤ 100	≤ 100	
Cc1ncc(S(=O)(=O)N2CCC3(CC2)C2=C(CC(C)(C)CC2=O)Nc2n[nH]cc23)o1 [Compound 947611]			≤ 100	≤ 100	IC50 [1, 7]: 100 to 1000 nM; IC50 [2, 8]: 100 to 1000 nM
COc1ccc(S(=O)(=O)N2CCC3(CC2)C2=C(CC(C)(C)CC2=O)Nc2n[nH]cc23)cc1Cl [Compound 947612]			≤ 100	≤ 100	
CC1(C)CC(=O)C2=C(C1)Nc1n[nH]cc1C21CCN(S(=O)(=O)c2cccnc2)CC1 [Compound 947613]			≤ 100	≤ 100	IC50 [1, 7]: 100 to 1000 nM; IC50 [2, 8]: 1000 to 5000 nM
Cc1cnc2c(S(=O)(=O)N3CCC4(CC3)C3=C(CC(C)(C)CC3=O)Nc3n[nH]cc34)cccc2c1 [Compound 947614]					IC50 [1, 9]: ≤ 100 nM; IC50 [2, 10]: ≤ 100 nM
CC1(C)CC(=O)C2=C(C1)Nc1n[nH]cc1C21CCN(S(=O)(=O)c2cnn3ccccc23)CC1 [Compound 947615]			≤ 100	≤ 100	
Cc1cc(S(=O)(=O)N2CCC3(CC2)C2=C(CC(C)(C)CC2=O)Nc2n[nH]cc23)cc(C)n1 [Compound 947616]			≤ 100	≤ 100	IC50 [1, 7]: 100 to 1000 nM; IC50 [2, 8]: 1000 to 5000 nM
CC[C@]1(c2cccc(-c3cc(C)nn3C)c2)C2=C(Nc3n[nH]cc31)[C@H](F)C(C)(C)CC2=O [Compound 947656]			100 to 1000	> 5000	
CCC1(c2cccc(-c3c(C)cncc3C)c2)C2=C(CC(C)(C)CC2=O)Nc2n[nH]cc21 (stereo not shown) [Compound 947658]					IC50 [1, 11]: ≤ 100 nM; IC50 [2, 12]: 100 to 1000 nM
CC[C@]1(c2cccc(Cc3ncccc3C(F)(F)F)c2)C2=C(CC(C)(C)CC2=O)Nc2n[nH]cc21 [Compound 947665]			1000 to 5000	> 5000	
CCC1(c2cccc(N3CCCCC3)c2)C2=C(CC(C)(C)NC2=O)Nc2n[nH]c(C)c21 (stereo not shown) [Compound 947674]	≤ 100	100 to 1000			

Compound	IC50 [1, 3] [nM]	IC50 [2, 4] [nM]	IC50 [1, 5] [nM]	IC50 [2, 6] [nM]	also measured
CC1CC(C(=O)N2CC3(C2)CC2(CO3)C3=C(CC(C)(C)CC3=O)Nc3n[nH]cc32)C1 (stereo not shown) [Compound 947732]					IC50 [1, 9]: 100 to 1000 nM; IC50 [2, 10]: 1000 to 5000 nM
CC1CC(C(=O)N2CC3(C2)CC2(CO3)C3=C(CC(C)(C)CC3=O)Nc3n[nH]cc32)C1 (stereo not shown) [Compound 947733]					IC50 [1, 9]: ≤ 100 nM; IC50 [2, 10]: ≤ 100 nM
CC1(C)CC(=O)C2=C(C1)Nc1n[nH]cc1[C@]21COC2(CN(C(=O)C3(F)CCC3)C2)C1 [Compound 947735]					IC50 [1, 9]: ≤ 100 nM; IC50 [2, 10]: ≤ 100 nM
CC1(C)CC(=O)C2=C(C1)Nc1n[nH]cc1C21COC2(CN(C(=O)C3(F)CCC3)C2)C1 (stereo not shown) [Compound 947736]					IC50 [1, 9]: ≤ 100 nM; IC50 [2, 10]: 100 to 1000 nM
CCC1(c2cccc(C(F)(F)F)c2)C2=C(CCN(c3ccc(F)cc3)C2=O)Nc2n[nH]cc21 (stereo not shown) [Compound 947748]	≤ 100	100 to 1000			
CCC1(c2cccc(S(C)(=O)=O)c2)C2=C(CC(C)(C)NC2=O)Nc2n[nH]c(C(F)(F)F)c21 (stereo not shown) [Compound 947799]	≤ 100	≤ 100			
CCC1(c2cccc(S(=O)(=O)C(C)C)c2)C2=C(CC(C)(C)NC2=O)Nc2n[nH]c(C(F)(F)F)c21 (stereo not shown) [Compound 947800]	≤ 100	≤ 100			
CCC1(c2cccc(-c3cnn4c3CCCC4)c2)C2=C(CC(C)(C)NC2=O)Nc2n[nH]c(C(F)(F)F)c21 (stereo not shown) [Compound 947801]	≤ 100	≤ 100			
CCC1(c2cccc(-c3cnnn3C)c2)C2=C(CC(C)(C)CC2=O)Nc2n[nH]cc21 (stereo not shown) [Compound 947802]			≤ 100	≤ 100	
CCC1(c2cccc(Oc3ncccn3)c2)C2=C(CC(C)(C)CC2=O)Nc2n[nH]cc21 (stereo not shown) [Compound 947808]			≤ 100	≤ 100	IC50 [1, 11]: ≤ 100 nM; IC50 [2, 12]: 100 to 1000 nM
CC[C@]1(c2cccc(-c3cnn4c3CCCC4)c2)C2=C(CC(C)(C)NC2=O)Nc2n[nH]c(C)c21 [Compound 947809]	100 to 1000	1000 to 5000			
CC[C@]1(c2cccc(-c3ccnc(CCO)c3)c2)C2=C(CC(C)(C)CC2=O)Nc2n[nH]cc21 [Compound 947810]			≤ 100	100 to 1000	
CC1(C)CC(=O)C2=C(C1)Nc1n[nH]cc1C21CN(c2cccnc2)C1 [Compound 947813]					IC50 ([1]; 1 nM GSK3α, 4 μM ATP, 30 minute preincubation, Table 16, read-out: GSK3-A TR-FRET BIOCHEMICAL (TR-FRET), IC50): 1000 to 5000 nM; IC50 ([2]; 1 nM GSK3b, 2 μM ATP, 30 minute preincubation, Table 16, read-out: GSK3-B TR-FRET BIOCHEMICAL (TR-FRET), IC50): 1000 to 5000 nM
CC[C@@]1(c2cccc(-c3ccnc(CCO)c3)c2)C2=C(CC(C)(C)CC2=O)Nc2n[nH]cc21 [Compound 947816]			1000 to 5000	> 5000	
CC[C@@]1(c2cccc(-c3cnn4c3CCCC4)c2)C2=C(CC(C)(C)NC2=O)Nc2n[nH]c(C)c21 [Compound 947817]	≤ 100	≤ 100			
CCC1(c2cccc(Oc3ncccn3)c2)C2=C(CC(C)(C)CC2=O)Nc2n[nH]cc21 (stereo not shown) [Compound 947818]			100 to 1000	> 5000	
